Values quoted from earlier work in patent publication US20230079706A1, “Solid Cleansing Compositions and Methods for the Same” (Colgate-Palmolive Company, priority 2021, published 2023).

Test system: melanin
Settings: personal care compositions with lower than 2.0 wt % Kojic acid

Structure (SMILES): O=c1cc(CO)occ1O [Kojic acid, 5-Hydroxy-2-(hydroxymethyl)-4H-pyran-4-one]
- Efficacy in the reduction of melanin and/or the inhibition of melanin production: poor to no efficacy
